This is an account of results in patent US20070207160A1, “Apoptosis inhibitors” (priority 1994, published 2007).

What all share (type): cell-based
In one test the test system is L 29-APO-1 cells. Put plainly: Inhibition of apoptosis induced by an anti-APO-1 antibody using DCI (MTT assay). Particulars: DCI 45 μM or 15 μM, 1 hour before anti-APO-1 antibody for 7 hours, FIG. 2B. On the procedure:
FIG. 2B depicts the inhibition of apoptosis by DCI. L 29-APO-1 cells were incubated with DCI (●45μM, ▴15 μM) or without DCI (◯). After one hour, anti-APO-1 antibody was added in the amounts indicated in FIG. 2B and allowed to remain on the cells for 7 hours. The percentage cell death was determined by formazan production from diphenyltetrazolium salt (MTT assay).
(In general: Tetrazolium dyes change colour on reduction, which living cells bring about.)

Test [1] has as its system L 29-APO-1 cells and SKW 6.4 cells. Put plainly: Inhibition of apoptosis induced by an anti-APO-1 antibody using YVAD-CHO (DNA fragmentation, Hoechst dye 33342, FACS). Particulars: permeabilized L 29-APO-1 and SKW 6.4 cells, YVAD-CHO 30 minutes, then anti-APO-1 antibodies 1 μg/ml for 60 minutes; FIG. 2C. The method, then:
FIG. 2C depicts the inhibition of apoptosis by YVAD-CHO.
L 29-APO-1 cells (◯) and SKW 6.4 cells (●) were permeabilized by a short hypotonic shock and incubated with the indicated concentrations of YVAD-CHO indicated in FIG. 2C for 30 minutes. The cells were incubated with anti-APO-1 antibodies (1 μg/ml) for 60 minutes. Apoptosis was determined by measuring a DNA fragmentation using the Hoechst dye 33342 (Molecular Probes Eugene, Oreg.). Data of specific cell death (cell death in the presence of an anti-APO-1 antibody minus cell death in the absence of such an antibody) was obtained from triple measurements by using an FACS Vantage flow cytometer. Spontaneous cell death in the absence of an anti-APO-1 antibody was less than 7%.

The test system of another test is SKW 6.4 cells. Put plainly: Inhibition of apoptosis induced in SKW 6.4 cells by anti-APO-1 antibody. The following applies: SKW 6.4 cells incubated with anti-APO-1 antibody (20 ng/ml) and varying amounts of inhibitor for 24 hours, FIG. 1. The method, then:
FIG. 1 depicts the inhibition of apoptosis induced in SKW6.4 cells by means of anti-APO-1 antibodies (20 ng/ml) by human APO-1-Ig and anti-APO-1F(ab′)2, respectively.
SKW 6.4 cells (Oehm et al, supra) are apoptosis-positive cells, i.e. apoptosis can be induced therein, e.g. by binding an anti-APO-1 antibody.
SKW 6.4 cells were incubated with an anti-APO-1 antibody in the presence of varying amounts of the fusion protein of Example 1 (human APO-1-Ig) and of anti-APO-1-F(ab)2 (see above), respectively, for 24 hours. The inhibition of apoptosis was determined. See, FIG. 1.

On to `O=c1oc(Cl)c(Cl)c2ccccc12` [DCI, 3,4-dichloroisocoumarin], for which, in the test on L 29-APO-1 cells, the “inhibition of apoptosis induced by an anti-APO-1 antibody (percentage cell death, MTT assay)” value is “can be inhibited”.
For the molecule YVAD-CHO, the “inhibition of apoptosis induced by an anti-APO-1 antibody (specific cell death, DNA fragmentation)” value in test [1] was “can be inhibited”.

B1: fused portion of Example 1: Fusion protein in which an extracellular APO-1 domain is fused via an antibody-hinge region to an Fc portion of a human antibody (protein)
chain: QVTDINSKGLELRKTVTTVETQNLEGLHHDGQFCHKPCPPGERKARDCTVNGDEPDCVPCQEGKEYTDKAHFSSKCRRCRLCDEGHGLEVEINCTRTQNTKCRCKPNFFCNSTVCEHCDPCTKCEHGIIKECTLTSNTKCKEEGSRSN
modifications: left off: a dimerising Fc or GST
notes: Fusion protein in which an extracellular APO-1 domain is fused via an antibody-hinge region to an Fc portion of a human antibody
As for B1, the inhibition of apoptosis result is given as “strong apoptosis-inhibiting effect” with SKW 6.4 cells and “especially strong” in the test with SKW 6.4 cells (listed as fusion protein).
